US20190119196A1, “COMPOUNDS FOR THE TREATMENT OF […]” (priority 2016, published 2019)
Where a name gives a salt, the structure may show the parent alone.

tested on: L6-myotubes; test: Glucose uptake in differentiated L6-myotubes (3H-2-deoxy-glucose); format: cell-based; conditions: read-out: Biological example 1: glucose uptake, % increase over the basal level
Method: (§1) L6-myoblasts were grown in Dulbecco's Modified Eagle's Medium (DMEM) containing 4,5 g/I glucose supplemented with 10% fetal bovine serum, 2 mM L-Glutamine, 50 U/ml penicillin, 50 μg/ml streptomycin and 10 mM HEPES. Cells were plated at 1×10^5 cells per ml in 24-well plates. After reaching 90% confluence the cells were grown in medium containing 2% FBS for 7 days where upon cells differentited into myotubes.
Differentiated L6-myotubes were serum-starved over night in medium containing 0.5% fatty-acid free BSA and stimulated with agonist, […], glucose free medium or PBS and another portion of agonist was added to glucose free medium. […] Cell lysate was mixed with scintillation buffer (Emulsifier Safe, Perkin Elmer and radioactivity detected in a β-counter (Tri-Carb 2800TR, Perkin Elmer). The numerical values in the table are given as % increase over the basal level.

Question: For `CCCCNCC(O)c1cc(Cl)c(O)c(Cl)c1` (stereo not drawn) [Example 26, 4-(2-(Butylamino)-1-hydroxyethyl)-2,6-dichlorophenol], which activation is on record?
Answer: 10%

Question: Which activation does the source give for `CCCCNCC(O)c1cc(Cl)c(N)c(Cl)c1` (stereo not drawn) [Example 29, 1-(4-Amino-3,5-dichlorophenyl)-2-(butylamino)ethan-1-ol trifluoroacetate] here?
Answer: 48%

same assay, conditions: read-out: Biological example 1: glucose uptake, % increase over the basal level; agonist final concentration 1×10^−5; differentiated L6-myotubes; 50 nM 3H-2-deoxy-glucose

Question: `CCCCNCC(O)c1cc(Cl)c(N)c(C(F)(F)F)c1` (stereo not drawn) [Example 30, 1-(4-Amino-3-chloro-5-(trifluoromethyl)phenyl)-2-(butylamino)ethan-1-ol] was tested. Which activation did it give?
Answer: 50%

Question: Which activation does the source give for `CCCCNCC(O)c1ccc(Cl)c(O)c1` (stereo not drawn) [Example 32, 5-(2-(Butylamino)-1-hydroxyethyl)-2-chlorophenol] here?
Answer: 53%

Question: With `CCCCNCC(O)c1ccc(Cl)c(N)c1` (stereo not drawn) [Example 34, 1-(3-Amino-4-chlorophenyl)-2-(butylamino)ethan-1-ol] as the compound, how does the activation read?
Answer: 20%

Question: With `CCCCNCC(O)c1cc(F)c(N)c(F)c1` (stereo not drawn) [Example 35, 1-(4-Amino-3,5-difluorophenyl)-2-(butylamino)ethan-1-ol] as the compound, how does the activation read?
Answer: 65%

tested on: L6-myotubes; test: Measurement of intracellular cAMP levels (alpha screen cAMP kit); format: cell-based; conditions: agonist final concentration 1×10^−5, 15 min; differentiated cells; 1 mM IBMX
Method: as §1
Differentiated cells were serum-starved over night and stimulated with agonist, final concentration 1×10−^5, for 15 min in stimulation buffer (HBSS supplemented with 1% BSA, 5 mM HEPES and 1 mM IBMX, pH 7,4) The medium was then aspirated and to end the reaction 100 μL of 95% EtOH was added to each well of a 24-well plate and cells were kept in −20° C. over night. The EtOH was let to evaporate and 500 μL of lysis buffer (1% BSA, 5 mM HEPES and 0,3% Tween-20, pH 7.4) was added to each well before put in −80° C. for 30 min and then kept in −20° C. Intracellular cAMP levels were detected using an alpha screen cAMP kit (6760635D from Perkin Elmer). The numerical values in the table are given as % increase over the basal level.

Question: For `CCCCNCC(O)c1cc(Cl)c(O)c(Cl)c1` (stereo not drawn) [Example 26, 4-(2-(Butylamino)-1-hydroxyethyl)-2,6-dichlorophenol], which “Biological example 2: intracellular cAMP levels, % increase over the basal level” value is on record?
Answer: −0.3%

Question: Which “Biological example 2: intracellular cAMP levels, % increase over the basal level” value does the source give for `CCCCNCC(O)c1cc(Cl)c(N)c(Cl)c1` (stereo not drawn) [Example 29, 1-(4-Amino-3,5-dichlorophenyl)-2-(butylamino)ethan-1-ol trifluoroacetate] here?
Answer: 222%

Question: `CCCCNCC(O)c1cc(Cl)c(N)c(C(F)(F)F)c1` (stereo not drawn) [Example 30, 1-(4-Amino-3-chloro-5-(trifluoromethyl)phenyl)-2-(butylamino)ethan-1-ol] was tested. Which “Biological example 2: intracellular cAMP levels, % increase over the basal level” value did it give?
Answer: 231%

Question: Which “Biological example 2: intracellular cAMP levels, % increase over the basal level” value does the source give for `CCCCNCC(O)c1ccc(Cl)c(O)c1` (stereo not drawn) [Example 32, 5-(2-(Butylamino)-1-hydroxyethyl)-2-chlorophenol] here?
Answer: 371%

Question: How did the “Biological example 2: intracellular cAMP levels, % increase over the basal level” value turn out when `CCCCNCC(O)c1ccc(Cl)c(N)c1` (stereo not drawn) [Example 34, 1-(3-Amino-4-chlorophenyl)-2-(butylamino)ethan-1-ol] was run?
Answer: 0%

Question: Which “Biological example 2: intracellular cAMP levels, % increase over the basal level” value does the source give for `CCCCNCC(O)c1cc(F)c(N)c(F)c1` (stereo not drawn) [Example 35, 1-(4-Amino-3,5-difluorophenyl)-2-(butylamino)ethan-1-ol] here?
Answer: 6536%

target: T1, human β2-adrenoceptor (Homo sapiens, UniProt P07550); test: 3H-CGP 12177 whole cell β2 binding; conditions: not given
T1 construct: expressed in transfected cells
Method: ^3H-CGP 12177 Whole Cell β2 Binding
Chinese Hamster Ovary (CHO) cells stably expressing the human β2-adrenoceptor were grown in Dulbecco's modified Eagle's medium nutrient mix F12 (DMEM/F12) containing 10% fetal calf serum and 2 mM L-glutamine in a 37° C. humidified 5% CO2:95% air atmosphere. The cells were seeded (100 000 cells/mL) into white-sided, clear-bottomed 96-well isoplates and allowed to grow to confluence for the following day's experiment. Next day, the media was removed from each well of the isoplate. Aliquots of the test compounds (10^−2 M in DMSO) were diluted in DMEM/F12 containing 2 mM L-glutamine (serum-free media) to final concentration ranges of 10^−4 M to 10^−10 M and added to each well. The radioligand ^3H-CGP 12177 was diluted in the same medium (˜1 nM final well concentration) and added to each well. Propranolol and CGP 12177 (10 μM) were used to measure non-specific binding. The cells were incubated for 2 hours at 37° C. After incubation, the cells were washed twice by the addition and removal of 200 μL ice-cold phosphate-buffered saline (PBS). Cells were then lysed with Optiphase Supermix cocktail (100 μL/well) and a clear sealant top was applied to the plate. The plate was left overnight in the dark at room temperature, centrifuged (1000 rpm, 1 min) and measured in a MicroBeta2 Microplate Counter (Perkin Elmer) (10 minutes pre-incubation, 2 min counts/well).
All data points on each binding curve were measured in duplicates. Each 96-well plate also contained four determinations of total and non-specific binding. Non-specific binding was determined in the presence of CGP 12177 and propranolol (10 μM). […] All data points are measured in counts per minute (CPM) and converted into disintegrations per minute (DPM) by dividing the count rate (CPM) with the counting efficiency of the instruments detector (57%). The numerical values were obtained by using the GraphPad Prism 7 programme and are given as -log K (pKi) in the table.

T1 sequence (P07550 whole entry): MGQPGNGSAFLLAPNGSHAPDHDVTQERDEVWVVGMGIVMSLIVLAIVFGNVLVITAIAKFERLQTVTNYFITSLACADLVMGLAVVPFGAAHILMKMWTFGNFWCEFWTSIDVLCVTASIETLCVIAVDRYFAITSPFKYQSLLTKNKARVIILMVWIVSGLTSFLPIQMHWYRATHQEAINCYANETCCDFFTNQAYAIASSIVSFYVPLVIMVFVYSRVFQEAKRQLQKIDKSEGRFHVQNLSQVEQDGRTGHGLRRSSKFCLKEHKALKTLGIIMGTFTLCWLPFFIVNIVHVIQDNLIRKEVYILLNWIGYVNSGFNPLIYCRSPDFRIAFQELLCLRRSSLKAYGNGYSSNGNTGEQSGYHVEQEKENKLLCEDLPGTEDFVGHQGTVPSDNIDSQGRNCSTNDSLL

Question: `CCCCNCC(O)c1cc(Cl)c(N)c(Cl)c1` (stereo not drawn) [Example 29, 1-(4-Amino-3,5-dichlorophenyl)-2-(butylamino)ethan-1-ol trifluoroacetate] was tested. Which Ki did it give?
Answer: 0.316 µM

Question: How did the Ki turn out when `CCCCNCC(O)c1cc(Cl)c(N)c(C(F)(F)F)c1` (stereo not drawn) [Example 30, 1-(4-Amino-3-chloro-5-(trifluoromethyl)phenyl)-2-(butylamino)ethan-1-ol] was run?
Answer: 0.0794 µM

same assay, conditions: CHO cells stably expressing the human β2-adrenoceptor; ~1 nM 3H-CGP 12177; 2 hours at 37° C.; read-out: Biological example 3: -log K (pKi), 3H-CGP 12177 whole cell β2 binding (converted)

Question: With `CCCCNCC(O)c1cc(Cl)c(O)c(Cl)c1` (stereo not drawn) [Example 26, 4-(2-(Butylamino)-1-hydroxyethyl)-2,6-dichlorophenol] as the compound, how does the Ki read?
Answer: 25.1 µM

Question: With `CCCCNCC(O)c1ccc(Cl)c(O)c1` (stereo not drawn) [Example 32, 5-(2-(Butylamino)-1-hydroxyethyl)-2-chlorophenol] as the compound, how does the Ki read?
Answer: 6.31 µM

Question: `CCCCNCC(O)c1ccc(Cl)c(N)c1` (stereo not drawn) [Example 34, 1-(3-Amino-4-chlorophenyl)-2-(butylamino)ethan-1-ol] was tested. Which Ki did it give?
Answer: 3.16 µM

Question: `CCCCNCC(O)c1cc(F)c(N)c(F)c1` (stereo not drawn) [Example 35, 1-(4-Amino-3,5-difluorophenyl)-2-(butylamino)ethan-1-ol] was tested. Which Ki did it give?
Answer: 3.98 µM
